Source: US20040091933A1, “Methods for genetic interpretation and prediction of phenotype” (priority 2003, published 2004)

Test system: yeast
Experiment: Comparison of the transcript profile of clotrimazole-treated yeast with landmark transcript profiles of yeast mutants (correlation coefficient r)
Format: cell-based
Conditions: transcript abundances relative to wild-type
Protocol: FIG. 2(a-f) illustrates the correlation between the transcriptional response profile of yeast treated with clotrimazole and the transcriptional response profiles of yeast with perturbations in SWI4, RPD3, CNA1 CNA2, HMG2 and ERG11 genes. A straight line (higher correlation coefficient, r) indicates the greatest similarity.
In a preferred embodiment, the similarity between profiles is measured by a weighted correlation coefficient, r, given by Equation 4: [formula]
xik is […] and xjk is qjk/σjk, where qik and qjk are the logarithms of the expression ratios between the perturbed and baseline conditions for gene k in profiles i and j, respectively, and σik and σjk are the expected root mean square uncertainties in the measurements of qik and qjk, respectively. This is an optimally-weighted measure of correlation between two profiles, given the error estimate, σ, on each data point.
In many cases, the particular gene in the pathway that is responsible for a particular phenotype can be identified. […]

Question: What does the source list for `Clc1ccccc1C(c1ccccc1)(c1ccccc1)n1ccnc1` [clotrimazole]?
Answer: correlation coefficient r between clotrimazole transcriptional response and landmark profile (landmark: yeast having a disruption of the ERG11 gene (FIG. 2f)): 0.96; correlation coefficient r between clotrimazole transcriptional response and landmark profile (landmark: yeast having a disruption of the HMG2 gene (FIG. 2e)): 0.83
